Entries after “also recorded” stand apart in the source; their conditions may differ.
Legend:
B-RAF-VE = target: T1, B-RAF-VE (Homo sapiens, UniProt P15056, V600E); experiment: radiometric protein kinase assay (33PanQinase Activity Assay); type: biochemical; settings: panel of 24 kinases, 1 μM ATP, read-out: Inhibition of Kinases IC50
T1 construct: made in house; host or cells: Sf9 insect cells (baculovirus)
Method: (§1) Radicicol A (1) and analogues 3 and 31 were tested for its inhibition in a panel of 24 kinase (AKT1, ARKS, Aurora-A, Aurora-B, B-RAF-VE, CDK2/CycA, CDK4/CycD1, CK2-α1, FAK, EPHB4, ERB2, EGF-R, IGF1-R, SRC, VEGF-R2, VEGF-R3, FLT3, INS-R, MET, PDGFR-β, PLK1, SAK, TIE2, COT) at 10 μM using the procedure described below.
(§2) All protein kinases were expressed in Sf9 insect cells as human recombinant GST-fusion proteins or His-tagged proteins by means of the baculovirus expression system. Kinases were purified by affinity chromatography using either GSH-agarose (Sigma) or Ni-NTH-agarose (Qiagen). The purity of each kinase was checked by SDS-PAGE/silver staining and the identity of each kinase was verified by western blot analysis with kinase specific antibodies or by mass spectroscopy.
A radiometric protein kinase assay (^33PanQinase® Activity Assay) was used for measuring the kinase activity of the 24 protein kinases. All kinase assays were performed in 96-well FIashPlates™ from Perkin Elmer (Boston, Mass., USA) in a 50 μl reaction volume. […]
(§3) The reaction cocktails were incubated at 30° C. for 80 minutes. […] Incorporation of ^33Pi was determined with a microplate scintillation counter (Microbeta Trilux, Wallac). […]

FLT3 = target: T2, FLT3 (Homo sapiens, UniProt P36888); experiment: as above; type: biochemical; settings: for Inhibition of Kinases IC50 / IC50: panel of 24 kinases, 1 μM ATP; for IC50: read-out: Inhibition of Kinases IC50
T2 construct: made in house; host or cells: Sf9 insect cells (baculovirus)
T2 sequence (P36888 27-993): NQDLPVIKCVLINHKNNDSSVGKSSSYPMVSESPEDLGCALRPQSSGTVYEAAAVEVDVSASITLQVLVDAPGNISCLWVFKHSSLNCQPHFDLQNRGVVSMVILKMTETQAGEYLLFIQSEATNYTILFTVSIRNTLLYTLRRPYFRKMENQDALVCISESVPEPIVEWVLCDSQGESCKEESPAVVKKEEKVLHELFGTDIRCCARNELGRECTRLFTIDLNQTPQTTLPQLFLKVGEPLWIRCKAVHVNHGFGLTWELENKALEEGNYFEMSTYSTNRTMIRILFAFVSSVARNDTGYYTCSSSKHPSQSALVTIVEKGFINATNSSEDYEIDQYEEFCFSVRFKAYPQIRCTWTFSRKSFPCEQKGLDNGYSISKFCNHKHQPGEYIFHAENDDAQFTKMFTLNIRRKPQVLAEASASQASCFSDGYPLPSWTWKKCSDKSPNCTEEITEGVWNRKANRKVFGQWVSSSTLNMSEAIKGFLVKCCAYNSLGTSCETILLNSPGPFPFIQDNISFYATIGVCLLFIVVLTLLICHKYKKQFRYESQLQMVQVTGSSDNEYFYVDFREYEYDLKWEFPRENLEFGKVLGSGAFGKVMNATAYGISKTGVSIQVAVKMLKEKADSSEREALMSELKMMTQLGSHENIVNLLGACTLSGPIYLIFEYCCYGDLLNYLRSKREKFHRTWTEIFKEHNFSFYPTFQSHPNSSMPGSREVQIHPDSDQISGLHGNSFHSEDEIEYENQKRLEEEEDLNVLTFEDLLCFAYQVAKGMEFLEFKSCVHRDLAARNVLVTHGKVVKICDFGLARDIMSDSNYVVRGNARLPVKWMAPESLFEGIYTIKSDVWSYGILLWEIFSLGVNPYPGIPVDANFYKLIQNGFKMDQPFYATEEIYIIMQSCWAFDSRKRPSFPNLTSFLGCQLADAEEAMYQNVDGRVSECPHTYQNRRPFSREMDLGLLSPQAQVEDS
Method: as §1, §2
(§4) A radiometric protein kinase assay (^33PanQinase® Activity Assay) was used for measuring the kinase activity of the 24 protein kinases. All kinase assays were performed in 96-well FIashPlates™ from Perkin Elmer (Boston, Mass., USA) in a 50 μl reaction volume. The reaction cocktail was pipetted in 4 steps in the following order: • 20 μl of assay buffer • 5 μl of ATP solution (in H2O) • 5 μl of test compound (in 10% DMSO) • 10 μl of substrate/10 μl of enzyme solution (premixed)
(§5) The assay for all enzymes contained 60 mM HEPES-NaOH, pH 7.5, 3 mM MgCl2, 3 mM MnCl2, 3 μM Na-orthovanadate, 1.2 mM DTT, 50 μg/ml PEG20000, 1 μM [γ-^33P]-ATP (approx. 5×10^05 cpm per well).
(§6) The reaction cocktails were incubated at 30° C. for 80 minutes. The reaction was stopped with 50 μl of 2% (v/v) H3PO4, plates were aspirated and washed two times with 200 μl of 0.9% (w/v) NaCl or 200 μl H2O. Incorporation of ^33Pi was determined with a microplate scintillation counter (Microbeta Trilux, Wallac). All assays were performed with a BeckmanCoulter/Sagian robotic system.
(§7) Using the same method described above, compound 31 was evaluated in a panel of 127 kinase enzymes.

VEGF-R3 = target: T3, VEGF-R3 (Homo sapiens, UniProt P35916); experiment: as above; type: biochemical; settings: for Inhibition of Kinases IC50 / IC50: panel of 24 kinases, 1 μM ATP; for IC50: read-out: Inhibition of Kinases IC50
T3 construct: made in house; host or cells: Sf9 insect cells (baculovirus)
Method: as §1, §2, §4, §5, §6, §7

VEGF-R2 [1] = target: T4, VEGF-R2 (Homo sapiens, UniProt P35968); experiment: as above; type: biochemical; design: made in house; host or cells: Sf9 insect cells (baculovirus); settings: for Inhibition of Kinases IC50 / IC50: panel of 24 kinases, 1 μM ATP; for IC50: read-out: Inhibition of Kinases IC50
Method: as §1, §2, §4, §5, §6, §7

PDGFR-beta = target: T5, PDGFR-beta (Homo sapiens, UniProt P09619); experiment: as above; type: biochemical
T5 construct: made in house; host or cells: Sf9 insect cells (baculovirus)
From the text: as §2, §4, §5, §6, §7

MEK1 = target: T6, MEK1 (Homo sapiens, UniProt Q02750); experiment: panel of 127 kinases, radiometric protein kinase assay; type: biochemical; settings: FIG. 1, result in words
T6 construct: made in house; host or cells: Sf9 insect cells (baculovirus)
From the text: as §2, §4, §5, §3, §7

PDGFR-α = target: T7, PDGFR-α (Homo sapiens, UniProt P16234); experiment: as above; type: biochemical; settings: FIG. 1, result in words
T7 construct: made in house; host or cells: Sf9 insect cells (baculovirus)
From the text: as §2, §4, §5, §3, §7

VEGF-R2 [2] = target: T4, VEGF-R2; experiment: VEGF-R2 autophosphorylation in presence of VEGF165 in immortalized HUVECs (ELISA); type: cell-based; settings: 90 min incubation, then VEGF165 for 7 min, read-out: cellular IC50, VEGF-R2 autophosphorylation
Method: The potential efficacy of Compound 31 in vivo was assessed by measuring the level of VEGF-R2 autophosphorylation in the presence of its ligand (VEGF165). Thus immortalized HUVECs known to express high levels of VEGF-R2 were incubated with inhibitor 31 for 90 min. and then stimulated with VEGF165 for 7 min. The level of autophosphorylation was measured by ELISA using antiVEGF-R2 as capture antibody and anti-phosphotyrosine as detection antibody. Results are expressed as percentage of maximal autophosphorylation in the absence of inhibitor (FIGS. 1 and 2).
A number of RALs such as pochonins C and D are substituted with a chlorine atom at the 5 position rather than a methoxy, as with analogue 31. […] The potential efficacy of this compound in vivo was then assessed by measuring the level of VEGF-R2 autophosphorylation in the presence of its ligand (VEGF165). […] The level of autophosphorylation was measured by ELISA using antiVEGF-R2 as capture antibody and anti-phosphotyrosine as detection antibody. Results are expressed as percentage of maximal autophosphorylation in the absence of inhibitor (FIG. 3).
The potential efficacy of compound 31 in vivo was assessed by measuring the level of VEGF-R2 autophosphorylation in the presence of its ligand (VEGF165). […] The level of autophosphorylation was measured by ELISA using antiVEGF-R2 as capture antibody and anti-phosphotyrosine as detection antibody. […]

PDGFR-β = PDGFR-β (Homo sapiens, UniProt P09619); experiment: PDGFR-β autophosphorylation; type: cell-based; settings: cellular autophosphorylation
TIE2 = TIE2 (Homo sapiens, UniProt Q02763); experiment: autophosphorylation of TIE2; type: cell-based; settings: cellular autophosphorylation; result in words
[3] = panel of 127 kinases, FIG. 1, result in words

T4 sequence (P35968 20-1356): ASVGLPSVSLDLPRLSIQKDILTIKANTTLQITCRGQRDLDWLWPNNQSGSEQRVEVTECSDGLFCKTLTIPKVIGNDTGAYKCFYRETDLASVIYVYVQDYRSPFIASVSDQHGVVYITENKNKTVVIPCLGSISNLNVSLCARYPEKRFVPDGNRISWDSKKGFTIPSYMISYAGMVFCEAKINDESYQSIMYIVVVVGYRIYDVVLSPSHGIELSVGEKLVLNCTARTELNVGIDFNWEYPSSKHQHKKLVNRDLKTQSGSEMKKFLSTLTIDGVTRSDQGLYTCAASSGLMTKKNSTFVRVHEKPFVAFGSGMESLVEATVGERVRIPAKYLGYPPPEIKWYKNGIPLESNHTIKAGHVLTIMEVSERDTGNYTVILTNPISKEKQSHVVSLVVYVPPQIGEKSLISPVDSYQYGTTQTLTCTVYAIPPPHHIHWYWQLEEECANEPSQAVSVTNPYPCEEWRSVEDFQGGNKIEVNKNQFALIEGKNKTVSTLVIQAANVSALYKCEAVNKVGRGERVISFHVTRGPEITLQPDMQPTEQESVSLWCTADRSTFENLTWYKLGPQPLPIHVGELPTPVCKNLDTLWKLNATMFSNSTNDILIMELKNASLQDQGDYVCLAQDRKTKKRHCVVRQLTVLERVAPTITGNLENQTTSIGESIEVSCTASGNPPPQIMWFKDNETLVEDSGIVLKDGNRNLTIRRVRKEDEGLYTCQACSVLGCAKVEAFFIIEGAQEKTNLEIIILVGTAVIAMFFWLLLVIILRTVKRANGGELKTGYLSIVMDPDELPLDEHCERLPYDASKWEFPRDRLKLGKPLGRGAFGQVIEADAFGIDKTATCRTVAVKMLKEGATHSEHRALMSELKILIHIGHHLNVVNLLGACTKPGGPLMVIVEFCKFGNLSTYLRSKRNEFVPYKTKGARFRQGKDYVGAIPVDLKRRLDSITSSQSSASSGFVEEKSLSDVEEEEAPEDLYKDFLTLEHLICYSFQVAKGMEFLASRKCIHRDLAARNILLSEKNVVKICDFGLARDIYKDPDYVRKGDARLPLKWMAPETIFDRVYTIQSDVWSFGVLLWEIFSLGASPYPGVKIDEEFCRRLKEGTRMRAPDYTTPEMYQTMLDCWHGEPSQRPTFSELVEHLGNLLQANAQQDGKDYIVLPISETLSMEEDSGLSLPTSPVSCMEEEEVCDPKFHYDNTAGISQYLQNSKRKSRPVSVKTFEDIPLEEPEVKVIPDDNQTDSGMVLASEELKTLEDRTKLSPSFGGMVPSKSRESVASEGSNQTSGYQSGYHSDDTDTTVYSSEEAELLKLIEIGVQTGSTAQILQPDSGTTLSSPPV
T3 sequence (P35916 25-1363): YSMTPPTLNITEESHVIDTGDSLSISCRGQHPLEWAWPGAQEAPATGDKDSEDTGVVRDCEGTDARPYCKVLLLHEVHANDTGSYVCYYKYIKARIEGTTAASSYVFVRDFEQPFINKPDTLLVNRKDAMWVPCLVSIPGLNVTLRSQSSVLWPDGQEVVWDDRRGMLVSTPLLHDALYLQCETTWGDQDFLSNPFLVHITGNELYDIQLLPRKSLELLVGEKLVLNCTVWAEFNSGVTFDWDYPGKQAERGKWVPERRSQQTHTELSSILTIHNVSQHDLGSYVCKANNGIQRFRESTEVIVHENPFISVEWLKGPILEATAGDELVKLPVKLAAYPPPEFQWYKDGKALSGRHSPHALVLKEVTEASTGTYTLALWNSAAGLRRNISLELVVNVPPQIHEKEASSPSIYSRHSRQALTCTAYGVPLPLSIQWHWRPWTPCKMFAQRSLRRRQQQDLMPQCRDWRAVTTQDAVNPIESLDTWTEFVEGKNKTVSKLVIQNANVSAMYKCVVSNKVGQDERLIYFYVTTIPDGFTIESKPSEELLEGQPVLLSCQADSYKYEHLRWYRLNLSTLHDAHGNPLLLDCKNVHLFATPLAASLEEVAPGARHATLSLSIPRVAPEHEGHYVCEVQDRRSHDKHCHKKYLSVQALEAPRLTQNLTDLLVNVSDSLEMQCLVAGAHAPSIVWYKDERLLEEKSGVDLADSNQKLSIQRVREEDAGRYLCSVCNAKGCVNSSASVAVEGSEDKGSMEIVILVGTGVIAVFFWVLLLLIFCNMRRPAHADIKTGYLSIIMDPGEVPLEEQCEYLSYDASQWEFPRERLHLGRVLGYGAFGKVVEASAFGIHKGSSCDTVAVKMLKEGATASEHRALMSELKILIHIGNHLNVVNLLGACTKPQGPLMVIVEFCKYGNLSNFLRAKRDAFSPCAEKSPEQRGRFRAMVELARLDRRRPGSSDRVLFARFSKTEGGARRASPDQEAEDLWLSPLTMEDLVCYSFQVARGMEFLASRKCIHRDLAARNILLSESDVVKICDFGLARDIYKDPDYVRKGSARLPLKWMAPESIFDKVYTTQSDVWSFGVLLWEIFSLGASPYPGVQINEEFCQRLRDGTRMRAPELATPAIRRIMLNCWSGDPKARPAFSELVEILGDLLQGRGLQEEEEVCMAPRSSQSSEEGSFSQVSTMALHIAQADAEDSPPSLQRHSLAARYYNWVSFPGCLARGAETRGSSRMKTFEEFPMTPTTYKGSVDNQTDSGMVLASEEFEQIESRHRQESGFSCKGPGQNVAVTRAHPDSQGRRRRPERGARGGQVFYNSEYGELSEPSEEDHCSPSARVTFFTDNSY
T5 sequence (P09619 33-1106): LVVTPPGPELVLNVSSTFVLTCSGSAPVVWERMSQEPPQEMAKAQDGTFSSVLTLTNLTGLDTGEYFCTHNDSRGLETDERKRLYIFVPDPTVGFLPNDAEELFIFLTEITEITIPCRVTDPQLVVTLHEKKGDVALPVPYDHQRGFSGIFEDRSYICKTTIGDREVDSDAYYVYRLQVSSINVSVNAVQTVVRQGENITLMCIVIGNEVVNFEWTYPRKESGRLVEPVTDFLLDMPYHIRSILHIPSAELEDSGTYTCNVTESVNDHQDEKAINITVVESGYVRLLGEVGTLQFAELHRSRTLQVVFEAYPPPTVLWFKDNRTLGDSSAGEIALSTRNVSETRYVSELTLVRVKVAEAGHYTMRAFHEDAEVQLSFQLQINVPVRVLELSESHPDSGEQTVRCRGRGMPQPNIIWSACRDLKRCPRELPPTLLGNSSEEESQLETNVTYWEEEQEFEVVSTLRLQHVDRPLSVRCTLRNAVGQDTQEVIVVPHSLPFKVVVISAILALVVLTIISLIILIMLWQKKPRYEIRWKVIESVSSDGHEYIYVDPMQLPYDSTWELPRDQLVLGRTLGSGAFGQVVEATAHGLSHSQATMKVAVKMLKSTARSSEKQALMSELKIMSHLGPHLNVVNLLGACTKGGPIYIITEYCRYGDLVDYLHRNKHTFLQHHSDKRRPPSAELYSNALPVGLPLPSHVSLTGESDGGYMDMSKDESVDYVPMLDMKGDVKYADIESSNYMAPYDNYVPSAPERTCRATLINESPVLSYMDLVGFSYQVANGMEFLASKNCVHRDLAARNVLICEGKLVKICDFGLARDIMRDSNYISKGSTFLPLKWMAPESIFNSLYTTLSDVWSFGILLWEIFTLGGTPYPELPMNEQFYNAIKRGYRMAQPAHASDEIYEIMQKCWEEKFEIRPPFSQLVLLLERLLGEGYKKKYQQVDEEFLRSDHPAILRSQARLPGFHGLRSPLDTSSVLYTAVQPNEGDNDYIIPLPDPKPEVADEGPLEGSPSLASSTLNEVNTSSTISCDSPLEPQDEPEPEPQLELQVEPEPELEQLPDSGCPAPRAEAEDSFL
T6 sequence (Q02750 whole entry): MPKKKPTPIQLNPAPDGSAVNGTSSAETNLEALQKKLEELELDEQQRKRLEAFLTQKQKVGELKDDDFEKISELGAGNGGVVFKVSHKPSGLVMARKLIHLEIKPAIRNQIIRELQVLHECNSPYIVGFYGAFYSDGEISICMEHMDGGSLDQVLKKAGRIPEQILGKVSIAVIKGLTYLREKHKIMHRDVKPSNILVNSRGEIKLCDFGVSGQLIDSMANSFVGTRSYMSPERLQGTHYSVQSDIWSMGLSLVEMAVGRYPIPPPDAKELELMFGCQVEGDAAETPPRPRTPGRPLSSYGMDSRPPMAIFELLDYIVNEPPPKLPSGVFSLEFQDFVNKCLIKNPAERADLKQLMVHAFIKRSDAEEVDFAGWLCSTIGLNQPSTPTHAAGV
T1 sequence (P15056 whole entry V600E): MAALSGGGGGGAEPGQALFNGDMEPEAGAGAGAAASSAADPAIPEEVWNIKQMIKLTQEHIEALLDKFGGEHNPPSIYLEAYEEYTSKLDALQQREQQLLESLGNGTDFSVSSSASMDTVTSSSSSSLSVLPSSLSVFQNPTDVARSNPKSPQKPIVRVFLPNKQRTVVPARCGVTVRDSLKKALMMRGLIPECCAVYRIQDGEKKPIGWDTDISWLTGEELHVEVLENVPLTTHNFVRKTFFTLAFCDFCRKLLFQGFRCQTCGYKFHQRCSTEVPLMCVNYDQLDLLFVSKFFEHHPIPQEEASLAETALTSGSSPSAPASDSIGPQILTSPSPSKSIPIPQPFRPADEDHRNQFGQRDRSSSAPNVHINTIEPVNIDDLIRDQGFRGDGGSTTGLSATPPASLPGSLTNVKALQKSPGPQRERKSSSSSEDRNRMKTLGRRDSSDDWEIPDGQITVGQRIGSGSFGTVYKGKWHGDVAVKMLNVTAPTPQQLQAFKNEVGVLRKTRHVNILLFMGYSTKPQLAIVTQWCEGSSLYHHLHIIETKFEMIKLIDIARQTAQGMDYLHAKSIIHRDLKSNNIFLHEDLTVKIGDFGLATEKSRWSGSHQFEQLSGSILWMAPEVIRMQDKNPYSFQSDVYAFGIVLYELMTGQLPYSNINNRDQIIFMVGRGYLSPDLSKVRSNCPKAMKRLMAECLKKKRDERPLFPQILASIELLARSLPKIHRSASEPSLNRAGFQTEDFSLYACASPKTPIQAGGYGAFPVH
PDGFR-β, sequence (P09619 33-1106, species assumed): as the sequence (P09619 33-1106) above

Row | IC50 (B-RAF-VE) | SMILES | Inhibition of Kinases IC50 (FLT3) | IC50 (FLT3) | Inhibition of Kinases IC50 (VEGF-R3) | IC50 (VEGF-R3) | Inhibition of Kinases IC50 (VEGF-R2 [1]) | IC50 (VEGF-R2 [1]) | inhibitory activity (IC50) in a panel of 127 kinases (FLT3; [3]) | inhibitory activity (IC50) in a panel of 127 kinases (VEGF-R3; [3]) | Inhibition of Kinases IC50 (PDGFR-beta; PDGFR-beta, panel of 24 kinases, 1 μM ATP) | IC50 (PDGFR-beta; PDGFR-beta, panel of 24 kinases, 1 μM ATP, read-out: Inhibition of Kinases IC50) | inhibitory activity (IC50) in a panel of 127 kinases (PDGFR-beta; PDGFR-β, panel of 127 kinases, FIG. 1, result in words) | inhibitory activity (IC50) in a panel of 127 kinases (MEK1) | inhibitory activity (IC50) in a panel of 127 kinases (PDGFR-α) | IC50 (VEGF-R2 [2]) | IC50 (PDGFR-β) | autophosphorylation of TIE2 (TIE2) | inhibitory activity (IC50) in a panel of 127 kinases (VEGF-R2 [1]; [3])
1 | 6300 nM | COc1cc(O)c2c(c1)/C=C/C[C@H](O)[C@H](O)C(=O)/C=C\C[C@H](C)OC2=O [Compound 3, 5-Z-7-oxozeaenol] | potent inhibitory activity | 170 nM | potent inhibitory activity | 110 nM | potent inhibitory activity | 52 nM |  |  |  |  |  |  |  |  |  |  | 
2 |  | COc1cc(O)c2c(c1Cl)/C=C/C[C@H](O)[C@H](O)C(=O)/C=C\C[C@H](C)OC2=O [Compound 31] | potent inhibitory activity | 1800 nM | potent inhibitory activity | 210 nM | potent inhibitory activity | 90 nM | low micromolar concentrations; also recorded: low μM concentrations | nanomolar concentrations; also recorded: nM concentrations | potent inhibitory activity | 370 nM | nanomolar concentrations; also recorded: nM concentrations | nanomolar concentrations; also recorded: nM concentrations | nanomolar concentrations; also recorded: nM concentrations | 440 nM | 13000 nM | unaffected | nanomolar concentrations; also recorded: nM concentrations

Reference: US8513440B2, “Compositions and methods comprising analogues of radicicol A” (Universite de Strasbourg, priority 2007, dated 2013)
